Results reported in patent US20080312311A1, “Crystalline forms of 3-(2R-tetrahydrofuryl-methyl)-2-thioxanthine” (ASTRAZENECA AB, priority 2007, published 2008).

Assays:
[1] = polymorph transformation on stirring in solution; assay type: physicochemical
[2] = relative stability of crystal forms versus temperature; assay type: physicochemical

polymorph transformation on stirring in solution ([1]; stirring in a solution about or above 60° C.): transforms it to polymorph B
polymorph transformation on stirring in solution ([1]; stirring in solutions about or below 60° C.): transforms it to polymorph A
relative stability of the crystalline form ([2]; at ambient temperature, such as room temperature, Form A versus Form B): more stable
relative stability of the crystalline form ([2]; at temperatures over +65° C., Form B versus Form A): more stable
SMILES: O=c1[nH]c(=S)n(C[C@H]2CCCO2)c2nc[nH]c12 [3-(2R-tetrahydrofuryl-methyl)-2-thioxanthine]
